Where a name gives a salt, the structure may show the parent alone.
How the values were obtained:
[1] = GC-MS analysis of 13C-mass isotopomers of lactate in plasma after [U-13C]-glucose infusion; format: in vivo, human; conditions: in excess of natural abundance
[2] = GC-MS quantification of total and 13C-enriched metabolites in paired normal and cancerous lung tissues
[3] = NMR 13C-isotopomer profiling of TCA extracts of paired non-cancerous and cancerous lung tissues; conditions: for relative 13C abundance (HSQC peak volume normalized to total succinate concentration): patients #6-10; for % enrichment: human, in vivo
Procedure: Lung cancer patients were recruited based on the criteria of surgical eligibility and no history of diabetes. Each patient was consented in accordance with the U.S. HIPAA regulations. The following patient protocol was approved by the Internal Review Board at the University of Louisville. Ten grams uniformly ^13C labeled glucose ([U-^13C]-Glc or ^13C6-Glc or ^13C6-Glucose) in sterile saline solution were infused i.v. over a 30 min time period into each patient in the pre-op room approximately 3 or 12 hr prior to resection. Whole blood samples were collected into a vacutainer containing the anticoagulant K3EDTA or K3-EDTA before and after [U-^13C]-Glc infusion as well as after the surgery. Additional blood samples were collected 3 and 12 hr after the [U-^13C]-Glc infusion for the 12 hr treatment cases. […] The blood samples were placed on ice immediately after collection and centrifuged at 4° C. at 3,500×g for 15 min to recover the plasma fraction. All blood samples were aliquoted and flash-frozen in liquid N2 within 30 min of collection. Potassium EDTA was used as an anti-coagulant to minimize metabolic artifacts associated with anti-coagulation; it also served to remove the influence of interfering cations such as paramagnetic Fe^3+ and Cu^2+ for NMR analysis.
All timings from first incision to cutting arteries and veins to the lung were recorded so that the period of ischemia could be determined immediately after tissue resection, excess blood was blotted from the tissue, and small pieces of non-cancerous and tumor tissue were cut by the surgeon and freeze-clamped in liquid N2 within 5 minutes of removal from the chest cavity. The freezing process arrested metabolic changes almost instantaneously. […] Non-cancerous tissue was removed at least 2 cm from the tumor margin and certified to be tumor-free by trained pathologists. Subsequent pathological evaluation also confirmed tumor status and provided the tumor stage. All samples were stored at −80° C. until further processing for analysis.
Frozen tissue samples were pulverized into <10 μm particles in liquid N2 using a Spex freezer mill (Spex CertiPrep, Inc., Metuchen, N.J.) to maximize efficiency for subsequent extraction while maintaining biochemical integrity. An aliquot of the frozen powder was lyophilized before extraction for metabolites.
Water-soluble or polar metabolites were extracted from lyophilized tissue powders (4-48 mg) in ice-cold 10% trichloroacetic acid (TCA) (v/w minimum 40/1) while leaving proteins, nucleic acids, and polysaccharides behind, as described previously (Kim et al. Antioxidants & Redox Signaling 2001, 3:361-373). The extraction was performed twice for quantitative recovery. An aliquot (150 μl) of plasma samples were made to final 10% TCA concentration to precipitate proteins and recover metabolites in the supernatant. TCA was then removed from tissue or plasma extracts by lyophilization. The dry pellet was dissolved in nanopure water and two small aliquots were lyophilized for silylation and GC-MS analysis while the remaining bulk was passed through a Chelex 100 resin column (Bio-Rad Laboratories, Inc., Hercules, Calif.) to neutralize and remove interfering multivalent cations for NMR analysis.
The ^1H reference standard, DSS (2,2-Dimethyl-2-silapentane-5-sulfonate sodium salt) was added (30 or 50 nmoles) to the TCA extracts of tissue or plasma samples, respectively. […]

[4] = Isotopic enrichment in SCID mouse tissue lactate and glucose by 1D 1H NMR; format: in vivo; conditions: SCID, mouse, in vivo, 15 min
Procedure: A 20% solution of glucose in normal saline was sterile-filtered. 100 μL of this solution, or a 1:10 dilution (2%) were injected into the tail vein of a restrained mouse without anesthesia.
Mice were sacrificed at different times post glucose injection, and the following organs were dissected sequentially: lung, heart, liver, kidney, brain, spleen, and thigh muscle. Dissected tissue was flash frozen in liquid N2 within 1 minute of killing the animal.
Frozen tissues were ground in liquid N2 to <10 μm particles in a 6750 Freezer/Mill (Retsch, Inc., Newtown, Pa.) and extracted for soluble and lipidic metabolites as follows. Up to 20 mg of frozen tissue powder in 15 ml polypropylene conical centrifuge tube (Sarstedt, Newton, N.C.) containing 3 mm diameter glass beads was vigorously mixed with 2 ml of cold acetonitrile (mass spectrometry grade, stored at −20° C.) to denature proteins, followed by addition of 1.5 ml nanopure water, and 1 ml HPLC-grade chloroform (Fisher Scientific). The mixture was shaken vigorously until achieving a milky consistency followed by centrifugation at 3,000 g for 20 minutes at 4° C. to separate the polar (top), lipidic (bottom), and tissue debris layers (interface). The polar and lipidic layers were recovered sequentially and the remaining cell debris was extracted again with 0.5 ml chloroform:methanol:butylated hydroxytoluene (BHT) (2:1:1 mM) which was pooled with the lipidic fraction. All three fractions were vacuum-dried in a speedvac device (Vacufuge, Eppendorf, New York, N.Y.) and/or by lyophylization. The dry weight of tissue debris was obtained for normalization of metabolite content. The polar extracts were redissolved in 100% D2O containing 30 nmol perdeuterated DSS (2,2-dimethyl-2-silapentane-5-sulfonate, Cambridge Isotope Laboratories, Andover, Mass.) as internal chemical shift and concentration reference for NMR measurement.
NMR spectra were recorded at 14.1 T on a Varian Inova spectrometer equipped with a 5 mm inverse triple resonance cold probe, at 20° C. 1D NMR spectra were recorded with an acquisition time of 2 s and a recycle time of 5 sec. Concentrations of metabolites and ^13C incorporation were determined by peak integration of the ^1H NMR spectra referenced to the DSS methyl groups, with correction for differential relaxation, as previously described (See, Lane et al. (2008) Biophysical Tools for Biologists. 84: 541-588; Fan et al. (2008) Progress in NMR Spectroscopy 52: 69-117; Lane et al. (2007) Metabolomics 3: 79-86.). ^1H Spectra were typically processed with zero filling to 131 k points, and apodized with an unshifted Gaussian and a 0.5 Hz line broadening exponential.
The same extracts from FIG. 9 were analyzed by NMR to complement the GC-MS analysis. The ^13C enrichment into glucose/glucose-6-phosphate and lactate was determined by 1D ^1H NMR. The enrichments at 15 and 30 minutes post infusion were substantial in all tissues, and peak lactate enrichments differed according to the metabolic activity or glucose uptake rates of the different tissues (Table 7).
Lac measured at C3, G1c measured at C1α by NMR

[5] = patient #6 (sqC, grade II), cancer tissue
[6] = patient #6 (sqC, grade II), normal tissue
[7] = patient #7 (adenoC, grade II), cancer tissue
[8] = patient #7 (adenoC, grade II), normal tissue
[9] = patient #8 (sqC, grade II-III), cancer tissue
[10] = patient #8 (sqC, grade II-III), normal tissue
[11] = patient #9 (sqC, grade II), cancer tissue
[12] = patient #9 (sqC, grade II), normal tissue
[13] = patient #10 (sqC, grade III), cancer tissue
[14] = patient #10 (sqC, grade III), normal tissue

| Compound | Percentage distribution of 13C-mass isotopomers of lactate in plasma ([1]; patient #6, [U-13C]-glucose 3 h) [%] | Percentage distribution of 13C-mass isotopomers of lactate in plasma ([1]; patient #7, [U-13C]-glucose 3 h) [%] | Percentage distribution of 13C-mass isotopomers of lactate in plasma ([1]; patient #8, [U-13C]-glucose 3 h) [%] | Percentage distribution of 13C-mass isotopomers of lactate in plasma ([1]; patient #9, [U-13C]-glucose 3 h) [%] | Percentage distribution of 13C-mass isotopomers of lactate in plasma ([1]; patient #10, [U-13C]-glucose 3 h) [%] | metabolite content of lung tissue [2, 5] [μmole/g dry weight] | metabolite content of lung tissue [2, 6] [μmole/g dry weight] | metabolite content of lung tissue [2, 7] [μmole/g dry weight] | metabolite content of lung tissue [2, 8] [μmole/g dry weight] | metabolite content of lung tissue [2, 9] [μmole/g dry weight] | metabolite content of lung tissue [2, 10] [μmole/g dry weight] | metabolite content of lung tissue [2, 11] [μmole/g dry weight] | metabolite content of lung tissue [2, 12] [μmole/g dry weight] | metabolite content of lung tissue [2, 13] [μmole/g dry weight] | metabolite content of lung tissue [2, 14] [μmole/g dry weight] | relative 13C abundance (HSQC peak volume normalized to total succinate concentration) ([3]; non-cancerous tissues) | relative 13C abundance (HSQC peak volume normalized to total succinate concentration) ([3]; tumor tissues) | % enrichment [3] [%] | % 13C isotopic enrichment in tissue [4] [%] |
| --- | --- | --- | --- | --- | --- | --- | --- | --- | --- | --- | --- | --- | --- | --- | --- | --- | --- | --- | --- |
| [13CH3][13CH](O)[13C](=O)O (stereo not shown) [[U-^13C]-Lactate, uniformly ^13C labeled lactate] | 1.89 | 4.84 | 3.31 | 3.47 | 6.37 | – | – | – | – | – | – | – | – | – | – | – | – | – | – |
| NC(=O)CC[C@H](N)C(=O)O [Total Gln, glutamine] | – | – | – | – | – | 7.68 | 0.56 | 1.02 | 1.41 | 1.32 | 0.64 | 2.71 | 0.74 | 2.99 | 0.79 | – | – | – | – |
| O=C(O)[13CH2][13CH2]C(=O)O [C-2,3-succinate] | – | – | – | – | – | – | – | – | – | – | – | – | – | – | – | 0.6±0.7 | 3.6±1.2 | – | – |
| O=C(O)CC(O)(CC(=O)O)C(=O)O [Total Cit, citrate] | – | – | – | – | – | 1.32 | 0.60 | 1.18 | 1.21 | 1.56 | 1.28 | 1.53 | 0.77 | 1.37 | 0.74 | – | – | – | – |
| N[C@@H](CC(=O)O)C(=O)O [Total Asp, aspartate] | – | – | – | – | – | 4.27 | 1.32 | 3.09 | 3.83 | 1.51 | 2.67 | 4.78 | 1.94 | 1.66 | 2.27 | – | – | < 8 | – |
| C[C@H](N)C(=O)O [Total Ala, alanine] | – | – | – | – | – | 15.76 | 4.67 | 6.44 | 6.25 | 9.28 | 4.97 | 15.08 | 5.14 | 27.34 | 5.42 | – | – | ≤ 15 | 16 |
| N[C@@H](CCC(=O)O)C(=O)O [Total Glu, glutamate] | – | – | – | – | – | 4.80 | 0.24 | 2.97 | 2.96 | 3.25 | 1.88 | 4.78 | 1.91 | 3.28 | 1.82 | – | – | – | – |
| O=C(O)CCC(=O)O [Total Succ, succinate] | – | – | – | – | – | 1.34 | 0.17 | 0.70 | 0.50 | 1.84 | 0.89 | 1.59 | 0.64 | 3.13 | 1.14 | – | – | – | – |

— patent US20120237937A1, “METHODS TO DETECT CANCER IN ANIMALS” (UNIVERSITY OF LOUISVILLE RESEARCH FOUNDATION, INC., priority 2009, published 2012)
